Laboratory results taken from US3981814A, “Bacteriostatic substituted benzanilide compositions and methods for their use” (Givaudan Corporation, priority 1975, dated 1976).
Converted amounts (≈) assume the structure as drawn.

System: Staphylococcus aureus
Test: In vitro soap bacteriostatic test (agar dilution, spot inoculation, 35°, 48 hours)
Format: cell-based
Details: for MIC: Staphylococcus aureus, without soap, read-out: Compound Activity Without Soap: minimum concentration where S. aureus growth is completely inhibited; for Compound Activity With Soap: minimum concentration where S. aureus growth is completely inhibited: ratio of soap to compound 100:1
Description: The antibacterial properties of the compounds prepared in Examples 1 - 14 were tested in soap. The in vitro soap bacteriostatic tests were conducted as follows: The compound is dissolved in a suitable solvent, usually dimethylformamide, to give a 6% solution. One-half ml. aliquot was added to 100 ml. of 3% solution of bar soap stock solution. The solid soap used was a neutral white toilet soap of the "LUX" type. The fatty acids in this soap were of the following composition: This yields an aqueous soap solution containing 30,000 mcg./ml. soap and 300 mcg./ml. compound. The soap/compound ratio in the latter is 100/l. A two-fold serial dilution series is prepared with this solution using sterile distilled water in test tubes such that the final volume in each tube is 2.0 ml. To each test tube is added 28 ml. of molten Dextrose Trypticase Extract Agar (B.B.L.). The tube contents were poured into sterile Petri plates and allowed to harden. The highest final concentration of compound in the serial dilution series is 20 mcg./ml. Plates were spot inoculated with a broth culture of Staphylococcus aureus and incubated at 35° for 48 hours. The lowest concentration completely inhibiting growth of the test organism, in mcg./ml. is recorded as the bacteriostatic concentration of the compound. Tests in the absence of soap are made in a similar manner except that all dilutions are made in solvent. The final concentration in the agar should not be greater than 5%. The results of these tests with the compounds of the present invention as compared with compounds having chemical structures closely related to the compounds of the present invention (designated by the symbol "C") are set forth in the Table. Column 1 contains the data as to the activity of the test solution without soap; column 2 refers to tests in which the ratio of soap to compound is 100:1. […] Growth is observed at the next lower concentration.

| Structure (SMILES) | MIC [µg/mL] | Compound Activity With Soap: minimum concentration where S. aureus growth is completely inhibited |
| --- | --- | --- |
| O=C(Nc1cccc(C(F)(F)F)c1)c1ccc(Cl)cc1 [Compound 1, 4-Chloro-3'-(trifluoromethyl) benzanilide] | 10 (≈ 33.4 µM) | 0.625 µg/mL |
| O=C(Nc1cccc(C(F)(F)F)c1)c1cccc(Cl)c1 [Compound 2] | > 20 | 2.5 µg/mL |
| O=C(Nc1cccc(C(F)(F)F)c1)c1ccc(Br)cc1 [Compound 3] | > 20 | 2.5 µg/mL |
| O=C(Nc1cccc(C(F)(F)F)c1)c1cccc(Br)c1 [Compound 4] | > 20 | 2.5 µg/mL |
| O=C(Nc1cccc(C(F)(F)F)c1)c1ccc(Cl)c(Cl)c1 [Compound 5] | > 20 | 2.5 µg/mL |
| O=C(Nc1cccc(C(F)(F)F)c1)c1cc(Cl)cc(Cl)c1 [Compound 6] | > 20 | 2.5 µg/mL |
| O=C(Nc1ccc(Cl)c(C(F)(F)F)c1)c1ccc(C(F)(F)F)cc1 [Compound 7, 4'-Chloro-α,α,α,α',α ',α ', -hexafluoro-p-tolu-m-toluidide] | 0.625 (≈ 1.7 µM) | 0.312 µg/mL |
| O=C(Nc1ccc(Cl)c(C(F)(F)F)c1)c1ccc(Cl)cc1 [Compound 8, 4,4'-Dichloro-3'(trifluoromethyl) benzanilide] | 2.5 (≈ 7.48 µM) | 0.625 µg/mL |
| O=C(Nc1ccc(Cl)c(C(F)(F)F)c1)c1cccc(Cl)c1 [Compound 9, 3,4'-dichloro-α,α,α-trifluoro-m-benzo-toluidide] | > 20 | 0.625 µg/mL |
| O=C(Nc1ccc(Cl)c(C(F)(F)F)c1)c1ccc(Br)cc1 [Compound 10, 4-bromo-4'-chloro-α,α,α-trifluoro-m-benzotoluidide] | 0.625 (≈ 1.65 µM) | 0.312 µg/mL |
| O=C(Nc1ccc(Cl)c(C(F)(F)F)c1)c1cccc(Br)c1 [Compound 11] | > 20 | 2.5 µg/mL |
| O=C(Nc1ccc(Cl)c(C(F)(F)F)c1)c1ccc(Cl)c(Cl)c1 [Compound 12] | > 20 | 0.312 µg/mL |
| O=C(Nc1ccc(Br)c(C(F)(F)F)c1)c1cccc(Br)c1 [Compound 14, 3,4'-dibromo-α,α,α-trifluoro-m-benzotoluidide] | > 20 | 1.25 µg/mL |
| O=C(Nc1ccc(Br)c(C(F)(F)F)c1)c1ccc(Cl)cc1 [Compound 15, 4'-bromo-4-chloro-α,α,α-trifluoro-m-benzotoluidide] | 0.625 (≈ 1.65 µM) | 0.625 µg/mL |
| O=C(Nc1ccc(Br)c(C(F)(F)F)c1)c1ccc(Cl)c(Cl)c1 [Compound 16, 4'-bromo-3,4-dichloro-α,α,α-trifluoro-m-benzotoluidide] | > 20 | 0.312 µg/mL |
| O=C(Nc1ccc(F)c(C(F)(F)F)c1)c1ccc(Cl)cc1 [Compound 17, 4-chloro-α,α,α, 4'-tetrafluoro-m-benzotoluidide] | > 20 | 1.25 µg/mL |
| O=C(Nc1ccc(F)c(C(F)(F)F)c1)c1ccc(Br)cc1 [Compound 18, 4-bromo-α,α,α, 4' -tetrafluoro-m-benzotoluidide] | > 20 | 1.25 µg/mL |
| O=C(Nc1cc(C(F)(F)F)cc(C(F)(F)F)c1)c1ccc(Cl)c(Cl)c1 [Compound 21, 3,4-dichloro-α,α,α,α',α',α'-hexafluorobenzo-3',5'-xylidide] | > 20 | 0.312 µg/mL |
| CC(C)(C)c1ccc(C(=O)Nc2ccc(Cl)c(C(F)(F)F)c2)cc1 [Compound 22] | > 20 | 2.5 µg/mL |
| O=C(Nc1cccc(C(F)(F)F)c1)c1ccccc1Cl [Compound C1] | > 20 | 10.0 µg/mL |
| O=C(Nc1cccc(C(F)(F)F)c1)c1ccccc1Br [Compound C2] | > 10 | B (Inactive at 10 mcg./ml. (highest concentration tested)) |
| O=C(Nc1cccc(C(F)(F)F)c1)c1ccc(F)cc1 [Compound C3] | > 20 | 10.0 µg/mL |

| Structure (SMILES) | MIC [µg/mL] | Compound Activity With Soap: minimum concentration where S. aureus growth is completely inhibited |
| --- | --- | --- |
| O=C(Nc1cccc(C(F)(F)F)c1)c1cccc(C(F)(F)F)c1 [Compound C4] | > 20 | 10.0 µg/mL |
| O=C(Nc1cccc(C(F)(F)F)c1)c1ccccc1 [Compound C5] | > 20 | 10.0 µg/mL |
| O=C(Nc1ccccc1C(F)(F)F)c1ccccc1Cl [Compound C8] | > 10 | B (Inactive at 10 mcg./ml. (highest concentration tested)) |
| O=C(Nc1ccc(C(F)(F)F)cc1)c1ccc(Cl)cc1 [Compound C9] | > 10 | B (Inactive at 10 mcg./ml. (highest concentration tested)) |
| O=C(Nc1ccc(C(F)(F)F)cc1)c1ccc(F)cc1 [Compound C10] | 20 (≈ 70.6 µM) | 5.0 µg/mL |
| O=C(Nc1ccc(Cl)c(C(F)(F)F)c1)c1cc(Cl)cc(Cl)c1 [Compound C11] | > 10 | B (Inactive at 10 mcg./ml. (highest concentration tested)) |
| O=C(Nc1ccc(Cl)c(C(F)(F)F)c1)c1ccccc1Cl [Compound C12] | > 20 | 10.0 µg/mL |
| O=C(Nc1ccc(Cl)c(C(F)(F)F)c1)c1ccc(F)cc1 [Compound C13] | > 20 | 5.0 µg/mL |
| O=C(Nc1ccc(Cl)c(C(F)(F)F)c1)c1ccccc1Br [Compound C14] | > 10 | B (Inactive at 10 mcg./ml. (highest concentration tested)) |
| O=C(Nc1cc(C(F)(F)F)ccc1Cl)c1ccc(Cl)cc1 [Compound C15] | > 10 | B (Inactive at 10 mcg./ml. (highest concentration tested)) |
| O=C(Nc1cc(C(F)(F)F)ccc1Cl)c1cccc(Cl)c1 [Compound C16] | > 10 | B (Inactive at 10 mcg./ml. (highest concentration tested)) |
| O=C(Nc1cc(C(F)(F)F)ccc1Cl)c1ccccc1Cl [Compound C17] | > 10 | B (Inactive at 10 mcg./ml. (highest concentration tested)) |
| O=C(Nc1cc(C(F)(F)F)ccc1Cl)c1ccc(F)cc1 [Compound C18] | > 10 | B (Inactive at 10 mcg./ml. (highest concentration tested)) |
| O=C(Nc1cc(C(F)(F)F)ccc1Cl)c1cccc(Br)c1 [Compound C19] | > 10 | B (Inactive at 10 mcg./ml. (highest concentration tested)) |
| O=C(Nc1ccc(Cl)cc1C(F)(F)F)c1ccc(Cl)cc1 [Compound C20] | > 10 | B (Inactive at 10 mcg./ml. (highest concentration tested)) |
| O=C(Nc1ccc(Cl)cc1C(F)(F)F)c1cccc(Cl)c1 [Compound C21] | > 10 | B (Inactive at 10 mcg./ml. (highest concentration tested)) |
| O=C(Nc1ccc(Cl)cc1C(F)(F)F)c1ccccc1Cl [Compound C22] | > 10 | B (Inactive at 10 mcg./ml. (highest concentration tested)) |
| N#CSc1ccc(NC(=O)c2ccc(Cl)cc2)cc1C(F)(F)F [Compound C23] | > 20 | 5.0 µg/mL |
| N#CSc1ccc(NC(=O)c2ccc(Cl)c(Cl)c2)cc1C(F)(F)F [Compound C24] | > 10 | B (Inactive at 10 mcg./ml. (highest concentration tested)) |
| O=C(Nc1cc(C(F)(F)F)cc(C(F)(F)F)c1)c1cccc(Cl)c1 [Compound C25] | > 20 | 10.0 µg/mL |
| O=C(Nc1cc(C(F)(F)F)cc(C(F)(F)F)c1)c1ccccc1Cl [Compound C26] | > 20 | 10.0 µg/mL |
